Laboratory results as given in US12415794B2 (Edgewise Therapeutics, Inc., priority 2018, dated 2025).

Target: T1, cardiac myofibrils (myosin ATPase)
T1 construct: frozen myofibril pellets obtained from cardiac tissue; from tissue
Test: Cardiac Myofibril ATPase Assay (counter screen)
Assay type: biochemical
Conditions: myofibrils 1.0 mg/mL, KCl omitted, Table 5A
Description: Overview: Myosin ATPase activity is assessed by using a coupled reaction system, in which ADP generated by the myosin ATPase function is coupled to the disappearance of NADH through the pyruvate kinase/lactate dehydrogenase (PK-LDH) system. ATPase activity produces ADP, which is used as a substrate for PK to produce pyruvate and regenerate ATP. The pyruvate is then used as a substrate by LDH to oxidize NADH to NAD+. The rate of the reaction is monitored through the time-dependent disappearance of NADH using absorbance at 340 nm. Inhibition of ATPase activity by the assayed compounds is indicated by a reduced rate of NADH loss, relative to vehicle-treated controls, over the experimental time window. To assess the selectivity of the assayed compounds for skeletal myofibrils, the compounds are counter-screened in cardiac myofibrils.
Example 13: Cardiac Myofibril ATPase Assay
Following example 11, the counter screen was done using frozen myofibril pellets obtained from cardiac tissue. The assay was done in the same manner as above, with the following notable exceptions: the final well concentration of myofibrils was 1.0 mg/mL and KCl was omitted from the recipe.
Compounds of Table 1 to 3 were tested, and results of the assays appear in Tables 5a-5c herein. A=IC50 is less than or equal to 10 μM; B=IC50 is greater than 10 μM and less than 100 μM; C=IC50 is greater than 100 μM; and […].

T1 sequence (P12883 whole entry): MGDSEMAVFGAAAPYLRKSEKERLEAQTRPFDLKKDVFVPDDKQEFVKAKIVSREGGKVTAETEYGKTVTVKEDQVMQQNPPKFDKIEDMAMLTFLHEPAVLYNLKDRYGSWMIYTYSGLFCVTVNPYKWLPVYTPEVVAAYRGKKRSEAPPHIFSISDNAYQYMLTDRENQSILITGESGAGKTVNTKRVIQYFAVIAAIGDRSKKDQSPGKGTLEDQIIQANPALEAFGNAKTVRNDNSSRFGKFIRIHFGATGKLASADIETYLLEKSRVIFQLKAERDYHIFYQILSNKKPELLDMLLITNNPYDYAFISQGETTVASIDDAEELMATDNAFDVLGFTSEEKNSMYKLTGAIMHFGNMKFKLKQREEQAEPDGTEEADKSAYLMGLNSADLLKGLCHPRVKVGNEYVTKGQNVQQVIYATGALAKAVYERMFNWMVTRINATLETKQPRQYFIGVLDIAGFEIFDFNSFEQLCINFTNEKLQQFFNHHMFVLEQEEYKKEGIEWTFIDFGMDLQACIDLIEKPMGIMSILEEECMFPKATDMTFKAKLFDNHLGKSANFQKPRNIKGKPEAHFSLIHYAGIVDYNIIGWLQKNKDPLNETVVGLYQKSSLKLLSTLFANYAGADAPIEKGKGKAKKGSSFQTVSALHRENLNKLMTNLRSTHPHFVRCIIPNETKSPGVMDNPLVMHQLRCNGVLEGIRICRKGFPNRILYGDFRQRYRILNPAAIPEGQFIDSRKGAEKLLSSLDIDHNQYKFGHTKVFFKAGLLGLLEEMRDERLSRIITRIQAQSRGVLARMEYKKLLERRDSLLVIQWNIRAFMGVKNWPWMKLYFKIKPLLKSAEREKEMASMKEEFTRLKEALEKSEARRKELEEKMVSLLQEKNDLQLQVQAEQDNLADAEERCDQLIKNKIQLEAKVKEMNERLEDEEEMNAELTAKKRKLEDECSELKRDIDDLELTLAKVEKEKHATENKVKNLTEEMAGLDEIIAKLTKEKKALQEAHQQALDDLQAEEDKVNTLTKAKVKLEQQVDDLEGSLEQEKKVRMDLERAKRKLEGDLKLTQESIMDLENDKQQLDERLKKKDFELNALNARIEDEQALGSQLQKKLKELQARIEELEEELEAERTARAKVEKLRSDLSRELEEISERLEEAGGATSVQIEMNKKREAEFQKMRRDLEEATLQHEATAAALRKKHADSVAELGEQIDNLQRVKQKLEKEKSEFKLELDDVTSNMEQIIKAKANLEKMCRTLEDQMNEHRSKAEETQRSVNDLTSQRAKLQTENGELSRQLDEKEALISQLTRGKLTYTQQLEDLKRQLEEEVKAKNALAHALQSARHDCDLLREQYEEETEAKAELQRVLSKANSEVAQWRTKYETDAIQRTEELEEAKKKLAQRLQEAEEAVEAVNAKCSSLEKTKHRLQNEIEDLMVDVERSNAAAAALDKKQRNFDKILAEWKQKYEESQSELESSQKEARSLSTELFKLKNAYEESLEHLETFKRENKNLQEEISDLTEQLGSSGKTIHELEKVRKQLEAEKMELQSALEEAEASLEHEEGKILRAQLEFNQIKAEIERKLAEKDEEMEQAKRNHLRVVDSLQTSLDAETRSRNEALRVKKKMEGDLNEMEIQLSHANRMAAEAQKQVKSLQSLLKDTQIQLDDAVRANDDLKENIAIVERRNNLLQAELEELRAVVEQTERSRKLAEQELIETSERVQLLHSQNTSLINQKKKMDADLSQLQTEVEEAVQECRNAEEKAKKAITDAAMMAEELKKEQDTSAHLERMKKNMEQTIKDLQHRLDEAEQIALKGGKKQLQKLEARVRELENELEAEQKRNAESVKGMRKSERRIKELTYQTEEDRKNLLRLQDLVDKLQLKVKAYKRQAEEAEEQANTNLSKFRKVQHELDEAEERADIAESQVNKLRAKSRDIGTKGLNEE
T1 sequence (P08590 whole entry partner): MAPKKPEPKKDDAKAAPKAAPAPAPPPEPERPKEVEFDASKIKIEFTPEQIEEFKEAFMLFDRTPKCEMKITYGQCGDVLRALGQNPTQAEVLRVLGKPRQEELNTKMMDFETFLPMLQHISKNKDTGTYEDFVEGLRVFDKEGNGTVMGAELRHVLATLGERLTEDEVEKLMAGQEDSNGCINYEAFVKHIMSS
T1 sequence (P10916 whole entry partner): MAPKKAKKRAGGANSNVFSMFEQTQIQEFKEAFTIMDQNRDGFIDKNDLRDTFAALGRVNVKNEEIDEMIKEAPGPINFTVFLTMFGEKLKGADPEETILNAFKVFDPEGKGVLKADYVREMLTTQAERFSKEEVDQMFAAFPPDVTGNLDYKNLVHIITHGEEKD

For `O=C(Cn1nc(-c2ccc(OC(F)(F)F)nc2)ccc1=O)NCc1ccccc1Cl` [Compound I-3, N-(2-chlorobenzyl)-2-(6-oxo-3-(6-(trifluoromethoxy)pyridin-3-yl)pyridazin-1(6H)-yl)acetamide], which IC50 is on record?
The IC50 was over 100 µM.

`CC[C@H](C)NC(=O)Cn1nc(-c2ccc(OC(F)F)nc2)ccc1=O` [Compound I-9, (S)-N-(sec-butyl)-2-(3-(6-(difluoromethoxy)pyridin-3-yl)-6-oxopyridazin-1(6H)-yl)acetamide] was tested. Which IC50 did it give?
Its IC50 is over 100 µM.

How did the IC50 turn out when `CCNC(=O)Cn1nc(-c2cnc(OC(F)F)cc2F)ccc1=O` [Compound I-80, 2-(3-(6-(difluoromethoxy)-4-fluoropyridin-3-yl)-6-oxopyridazin-1(6H)-yl)-N-ethylacetamide] was run?
The IC50 was over 100 µM.

For `CCNC(=O)Cn1nc(-c2ccc(N3C[C@@H]4COCC3CO4)nc2)ccc1=O` [Compound I-81, 2-(3-(6-((5R)-3,6-dioxa-8-azabicyclo[3.2.2]nonan-8-yl)pyridin-3-yl)-6-oxopyridazin-1(6H)-yl)-N-ethylacetamide], which IC50 is on record?
Its IC50 is over 100 µM.

Same assay, conditions: myofibrils 1.0 mg/mL, KCl omitted, Table 5C

For `O=C(Cn1nc(-c2ccc(Cl)cc2)ccc1=O)NC1CCCCC1` [IIIc-39, 2-(3-(4-chlorophenyl)-6-oxopyridazin-1(6H)-yl)-N-cyclohexylacetamide], which IC50 is on record?
The IC50 was over 100 µM.

For `COc1ccc(-c2ccc(=O)n(CC(=O)N3CCC(C(N)=O)CC3)n2)cc1` [IIIc-11, 1-(2-(3-(4-methoxyphenyl)-6-oxopyridazin-1(6H)-yl)acetyl)piperidine-4-carboxamide], which IC50 is on record?
The IC50 was over 100 µM.

Which IC50 does the source give for `O=C(Cn1nc(-c2ccccc2)ccc1=O)NCCN1CCc2ccccc21` [IIIc-60, N-(2-(indolin-1-yl)ethyl)-2-(6-oxo-3-phenylpyridazin-1(6H)-yl)acetamide] here?
Its IC50 is over 100 µM.

With `CC(C)(CNC(=O)Cn1nc(-c2ccccc2)ccc1=O)c1ccccc1F` [IIIc-61, N-(2-(2-fluorophenyl)-2-methylpropyl)-2-(6-oxo-3-phenylpyridazin-1(6H)-yl)acetamide] as the compound, how does the IC50 read?
Its IC50 is over 100 µM.

With `Cc1cccnc1NC(=O)Cn1nc(-c2ccc(Cl)cc2)ccc1=O` [IIIc-24, 2-(3-(4-chlorophenyl)-6-oxopyridazin-1(6H)-yl)-N-(3-methylpyridin-2-yl)acetamide] as the compound, how does the IC50 read?
Its IC50 is over 100 µM.

For `COc1ccc(-c2ccc(=O)n(CC(=O)N3CCCC3)n2)cc1OC` [IIIc-9, 6-(3,4-dimethoxyphenyl)-2-(2-oxo-2-(pyrrolidin-1-yl)ethyl)pyridazin-3(2H)-one], which IC50 is on record?
The IC50 was over 100 µM.

How did the IC50 turn out when `O=C(Cn1nc(-c2ccc(Br)cc2)ccc1=O)NC1CCCCC1` [IIIc-42, 2-(3-(4-bromophenyl)-6-oxopyridazin-1(6H)-yl)-N-cyclohexylacetamide] was run?
Its IC50 is over 100 µM.

How did the IC50 turn out when `O=C(Cn1nc(-c2ccc(Cl)cc2)ccc1=O)Nc1ccc2cc[nH]c2c1` [IIIc-21, 2-(3-(4-chlorophenyl)-6-oxopyridazin-1(6H)-yl)-N-(1H-indol-6-yl)acetamide] was run?
The IC50 was over 100 µM.

For `COc1ccc(OC)c(NC(=O)Cn2nc(-c3ccc(Cl)cc3)ccc2=O)c1` [IIIc-29, 2-(3-(4-chlorophenyl)-6-oxopyridazin-1(6H)-yl)-N-(2,5-dimethoxyphenyl)acetamide], which IC50 is on record?
The IC50 was over 100 µM.

For `O=C(Cn1nc(-c2ccc(F)cc2)ccc1=O)NCc1cccc(F)c1` [IIIc-43, N-(3-fluorobenzyl)-2-(3-(4-fluorophenyl)-6-oxopyridazin-1(6H)-yl)acetamide], which IC50 is on record?
Its IC50 is over 100 µM.

`COc1ccc(NC(=O)Cn2nc(-c3ccc(Cl)cc3)ccc2=O)c(OC)c1` [IIIc-25, 2-(3-(4-chlorophenyl)-6-oxopyridazin-1(6H)-yl)-N-(2,4-dimethoxyphenyl)acetamide] was tested. Which IC50 did it give?
Its IC50 is over 100 µM.

For `COc1ccc(-c2ccc(=O)n(CC(=O)NCC(C)C)n2)c(F)c1` [IIIb-42, 2-(3-(2-fluoro-4-methoxyphenyl)-6-oxopyridazin-1(6H)-yl)-N-isobutylacetamide], which IC50 is on record?
The IC50 was over 100 µM.

For `COc1ccc(Cl)cc1NC(=O)Cn1nc(-c2ccc(Cl)cc2)ccc1=O` [IIIc-26, N-(5-chloro-2-methoxyphenyl)-2-(3-(4-chlorophenyl)-6-oxopyridazin-1(6H)-yl)acetamide], which IC50 is on record?
Its IC50 is over 100 µM.
